Counter-ions that a name gives are not always drawn.
How the values were obtained:
[1] = tested on: serum level of PTH (1-34+1-84); test: Rats with chronic renal failure (5/6 nephrectomy), serum PTH after oral administration; type: in vivo, rats (Sprague-Dawley)
Procedure: II—Rats with Chronic Renal Failure • Chronic renal failure (CRF) was induced in male rats (220-250 g, Sprague-Dawley, CERJ) by ablation of ⅚ of the total renal mass. • After anaesthesia (Imalgene 1000), the rats were subjected to exeresis of the right kidney and ablation of both ends of the left kidney, representing approximately ⅔ of the organ). • The incision was cauterised by application of dry ice. […] The sera were frozen at −20° C. • After thawing, the serum level of PTH (1-34+1-84) was measured by a radioimmunology test (IRMA kit, rat, Immutopics).

[2] = tested on: serum level of PTH (1-34+1-84); test: PTH measurement on intact rats (serum PTH after oral administration); type: in vivo, rats (Sprague-Dawley); details: intact male rats
[3] = Rattus norvegicus, 0.5 h, 10 mg/kg, 30 min, read-out: % PTH reduction at 30 min relative to the untreated group

Structure (SMILES)	change in vivo at 10 mg/kg [1, 3]	further results
Cc1ccc(-c2csc(NC(=O)N(CCC(c3ccccc3)c3ccccc3)CCN3CCOCC3)n2)cc1 [Example 28, 1-(3,3-diphenyl-propyl)-1-(2-morpholin-4-yl-ethyl)-3-(4-p-tolyl-thiazol-2-yl)-urea dihydrochloride]	-91%	
COc1ccc(-c2csc(NC(=O)N(CCC(c3ccccc3)c3ccccc3)CCN3CCOCC3)n2)cc1 [51 a]		% PTH reduction at time t, relative to the untreated group ([2]; 10 mg/kg, at 2 h): −78% at 2 h
O=C(Nc1nc(-c2ccc(F)cc2)cs1)N(CCC(c1ccccc1)c1ccccc1)CCN1CCOCC1 [54 a]		% PTH reduction at time t, relative to the untreated group ([2]; 10 mg/kg, at 2 h): −78% at 2 h
O=C(Nc1nc(-c2ccc(Cl)cc2)cs1)N(CCC(c1ccccc1)c1ccccc1)CCN1CCOCC1 [Example 25, 3-[4-(4-chloro-phenyl)-thiazol-2-yl]-1-(3,3-diphenyl-propyl)-1-(2-morpholin-4-yl-ethyl)-urea dihydrochloride]	-74%	
O=C(Nc1nc2ccccc2s1)N(CCC(c1ccccc1)c1ccccc1)CCN1CCOCC1 [Example 8, 3-benzothiazol-2-yl-1-(3,3-diphenyl-propyl)-1-(2-morpholin-4-yl-ethyl)-urea dihydrochloride]	-80%	% PTH reduction at 2 h relative to the untreated group ([1]; 10 mg/kg, 2 h): −90%
O=C(Nc1nc(-c2cccnc2)cs1)N(CCC(c1ccccc1)c1ccccc1)CCN1CCOCC1 [Example 47, 1-(3,3-diphenyl-propyl)-1-(2-morpholin-4-yl-ethyl)-3-(4-pyridin-3-yl-thiazol-2-yl)-urea trihydrochloride]		change in vivo at 30 mg/kg ([1]; Rattus norvegicus, 0.5 h, 30 mg/kg, 30 min, read-out: % PTH reduction at 30 min relative to the untreated group): -96%
N#Cc1ccc(-c2csc(NC(=O)N(CCC(c3ccccc3)c3ccccc3)CCN3CCOCC3)n2)cc1 [Example 44, 3-[4-(4-cyano-phenyl)-thiazol-2-yl]-1-(3,3-diphenyl-propyl)-1-(2-morpholin-4-yl-ethyl)-urea dihydrochloride]	-88%	
O=C(Nc1nc(-c2ccc(N3CCCC3)cc2)cs1)N(CCC(c1ccccc1)c1ccccc1)CCN1CCOCC1 [Example 36, 1-(3,3-diphenyl-propyl)-1-(2-morpholin-4-yl-ethyl)-3-[4-(4-pyrrolidin-1-yl-phenyl)-thiazol-2-yl]-urea trihydrochloride]	-98%	
O=C(Nc1nc2ccc(Cl)cc2s1)N(CCC(c1ccccc1)c1ccccc1)CCN1CCOCC1 [Example 2, 3-(6-chloro-benzothiazol-2-yl)-1-(3,3-diphenyl-propyl)-1-(2-morpholin-4-yl-ethyl)-urea dihydrochloride]	-84%	% PTH reduction at time t, relative to the untreated group ([2]; 30 mg/kg, at 30 mn): −93% at 30 mn
Cc1ccc(-c2csc(NC(=O)N(CCC(c3ccccc3)c3ccccc3)CCN3CCOCC3)n2)o1 [Example 60, 1-(3,3-diphenyl-propyl)-3-[4-(5-methyl-furan-2-yl)-thiazol)-2-yl]-1-(2-morpholin-4-yl-ethyl)-urea dihydrochloride]	-87%	
CCOC(=O)c1cc(-c2csc(NC(=O)N(CCC(c3ccccc3)c3ccccc3)CCN3CCOCC3)n2)on1 [Example 31, 5-{2-[3-(3,3-diphenyl-propyl)-3-(2-morpholin-4-yl-ethyl)-ureido]-thiazol-4-yl}-isoxazole-3-carboxylic acid ethyl ester dihydrochloride]	-85%	
CS(=O)(=O)c1ccc(-c2csc(NC(=O)N(CCC(c3ccccc3)c3ccccc3)CCN3CCOCC3)n2)cc1 [40 a]		% PTH reduction at time t, relative to the untreated group ([2]; 10 mg/kg, at 2 h): −71% at 2 h
